Assay results: PubChem BioAssay (NCI)
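Exposure lasted 48 hours, with cells grown in 96-well plates and compounds tested at five concentrations. GI50: concentration for 50% inhibition of growth. TGI denotes the concentration required for complete inhibition of growth.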

Assays:
Experiment in all cases: inhibition of tumour cell growth, NCI panel, 48 h
BT-549 breast = tested on: BT-549 breast
COLO 205 colon = tested on: COLO 205 colon
SK-MEL-5 melanoma = tested on: SK-MEL-5 melanoma
ACHN renal = tested on: ACHN renal
SF-295 CNS = tested on: SF-295 CNS
EKVX NSCLC = tested on: EKVX NSCLC
SR leukemia = tested on: SR leukemia
MCF7 breast = tested on: MCF7 breast
KM12 colon = tested on: KM12 colon
CCRF-CEM leukemia = tested on: CCRF-CEM leukemia

SMILES: CNc1[nH]c(=S)nc2sc3c(c12)CCCC3
- TGI (BT-549 breast): > 75 µM
- TGI (COLO 205 colon): > 75 µM
- TGI (SK-MEL-5 melanoma): > 75 µM
- TGI (ACHN renal): > 75 µM
- TGI (SF-295 CNS): > 75 µM
- TGI (EKVX NSCLC): > 75 µM
- TGI (SR leukemia): > 75 µM
- TGI (MCF7 breast): > 75 µM
- TGI (KM12 colon): > 75 µM

SMILES: Cc1ccnc(NC(=S)Nc2ccc([N+](=O)[O-])cc2)c1
- TGI (BT-549 breast): > 100 µM
- TGI (SK-MEL-5 melanoma): > 100 µM
- TGI (ACHN renal): > 100 µM
- TGI (SF-295 CNS): > 100 µM
- TGI (EKVX NSCLC): > 100 µM
- TGI (SR leukemia): > 100 µM
- TGI (MCF7 breast): > 100 µM
- TGI (CCRF-CEM leukemia): > 100 µM
- TGI (KM12 colon): > 100 µM

SMILES: N#CC(c1ccccc1)N(CCOCCOCCN(C(=O)c1ccccc1)C(C#N)c1ccccc1)C(=O)c1ccccc1 (stereo not drawn)
- TGI (BT-549 breast): > 100 µM
- TGI (COLO 205 colon): > 100 µM
- TGI (SK-MEL-5 melanoma): > 100 µM
- TGI (ACHN renal): > 100 µM
- TGI (SF-295 CNS): > 100 µM
- TGI (EKVX NSCLC): > 100 µM
- TGI (MCF7 breast): > 100 µM
- TGI (CCRF-CEM leukemia): > 100 µM
- TGI (KM12 colon): > 100 µM

SMILES: O=C(NN1C(=O)CS(=O)(=O)C1c1ccc(C(F)(F)F)cc1)c1ccncc1 (stereo not drawn)
- TGI (COLO 205 colon): > 100 µM
- TGI (SK-MEL-5 melanoma): > 100 µM
- TGI (ACHN renal): > 100 µM
- TGI (SF-295 CNS): > 100 µM
- TGI (SR leukemia): > 100 µM
- TGI (CCRF-CEM leukemia): > 100 µM
- TGI (KM12 colon): > 100 µM

SMILES: Cc1cc(C)nc(NC(=S)Nc2ccc([N+](=O)[O-])cc2)c1
- TGI (BT-549 breast): > 100 µM
- TGI (COLO 205 colon): > 100 µM
- TGI (SK-MEL-5 melanoma): > 100 µM
- TGI (ACHN renal): > 100 µM
- TGI (EKVX NSCLC): > 100 µM
- TGI (SR leukemia): > 100 µM
- TGI (MCF7 breast): > 100 µM
- TGI (CCRF-CEM leukemia): > 100 µM
- TGI (KM12 colon): > 100 µM

SMILES: O=C(NCCCl)O/N=C/c1cccnc1
- TGI (COLO 205 colon): > 100 µM
- TGI (SK-MEL-5 melanoma): > 100 µM
- TGI (SF-295 CNS): > 100 µM
- TGI (EKVX NSCLC): > 100 µM
- TGI (MCF7 breast): > 100 µM
- TGI (CCRF-CEM leukemia): > 100 µM
- TGI (KM12 colon): > 100 µM

SMILES: COc1cc2c(cc1OCCCCCN1CCN(c3ncnc4ccccc34)CC1)N=CC1CCCN1C2=O (stereo not drawn)
- GI50 (BT-549 breast): 0.0229 µM
- TGI (BT-549 breast): 0.0628 µM
- GI50 (COLO 205 colon): 0.0187 µM
- TGI (COLO 205 colon): 0.0408 µM
- GI50 (SK-MEL-5 melanoma): 0.018 µM
- TGI (SK-MEL-5 melanoma): 0.0338 µM
- GI50 (ACHN renal): 0.0523 µM
- TGI (ACHN renal): 4.15 µM
- GI50 (SF-295 CNS): 0.0226 µM
- TGI (SF-295 CNS): 0.0671 µM
- GI50 (EKVX NSCLC): 0.114 µM
- TGI (EKVX NSCLC): 0.724 µM
- GI50 (MCF7 breast): 0.0162 µM
- TGI (MCF7 breast): 0.923 µM
- GI50 (CCRF-CEM leukemia): 0.0133 µM
- TGI (CCRF-CEM leukemia): 0.0727 µM
- GI50 (KM12 colon): 0.0289 µM
- TGI (KM12 colon): 0.952 µM

SMILES: Cc1ccsc1/C=N/Nc1cnccn1
- TGI (BT-549 breast): > 100 µM
- TGI (COLO 205 colon): > 100 µM
- TGI (SK-MEL-5 melanoma): > 100 µM
- TGI (ACHN renal): > 100 µM
- TGI (SF-295 CNS): > 100 µM
- TGI (EKVX NSCLC): > 100 µM
- TGI (MCF7 breast): > 100 µM
- TGI (CCRF-CEM leukemia): > 100 µM
- TGI (KM12 colon): > 100 µM

SMILES: N#Cc1sc2c(c1OC(=O)c1ccc(C(F)(F)F)cc1)c(=O)n(-c1ccccc1)c(=S)n2-c1ccccc1
- TGI (COLO 205 colon): 46.4 µM
- TGI (SK-MEL-5 melanoma): 62.2 µM
- TGI (ACHN renal): 93.5 µM
- TGI (SF-295 CNS): 71.4 µM
- TGI (EKVX NSCLC): 70.9 µM
- TGI (MCF7 breast): > 100 µM
- TGI (CCRF-CEM leukemia): 36.7 µM
- TGI (KM12 colon): > 100 µM

SMILES: O[C@H]1[C@H](O)[C@@H](O)CN2CC[C@H](O)[C@H]12
- TGI (COLO 205 colon): > 100 µM
- TGI (SK-MEL-5 melanoma): > 100 µM
- TGI (SF-295 CNS): > 100 µM
- TGI (EKVX NSCLC): > 100 µM
- TGI (MCF7 breast): > 100 µM
- TGI (CCRF-CEM leukemia): > 100 µM
- TGI (KM12 colon): > 100 µM

SMILES: C=C(CN(C)C)C(=O)c1ccc(C(=O)C(=C)CN(C)C)cc1
- TGI (COLO 205 colon): > 100 µM
- TGI (SK-MEL-5 melanoma): > 100 µM
- TGI (ACHN renal): > 100 µM
- TGI (SF-295 CNS): > 100 µM
- TGI (EKVX NSCLC): > 100 µM
- TGI (SR leukemia): > 100 µM
- TGI (CCRF-CEM leukemia): > 100 µM
- TGI (KM12 colon): > 100 µM

SMILES: Cc1c2c(c(C)n1-c1ccccc1)C(=O)N(CCN1CCN(c3cccc(C(F)(F)F)c3)CC1)C2=O
- TGI (BT-549 breast): > 100 µM
- TGI (COLO 205 colon): > 100 µM
- TGI (SK-MEL-5 melanoma): 20.8 µM
- TGI (ACHN renal): > 100 µM
- TGI (SF-295 CNS): > 100 µM
- TGI (EKVX NSCLC): > 100 µM
- TGI (MCF7 breast): > 100 µM
- TGI (KM12 colon): > 100 µM

SMILES: COc1cc(C=O)ccc1O
- TGI (COLO 205 colon): > 100 µM
- TGI (SK-MEL-5 melanoma): > 100 µM
- TGI (ACHN renal): > 100 µM
- TGI (SF-295 CNS): > 100 µM
- TGI (EKVX NSCLC): > 100 µM
- TGI (SR leukemia): > 100 µM
- TGI (MCF7 breast): > 100 µM
- TGI (CCRF-CEM leukemia): > 100 µM
- TGI (KM12 colon): > 100 µM

SMILES: O=C(CN1C(=O)CC(c2ccccc2)(c2ccccc2)C1=O)N1CCN(CCO)CC1
- TGI (BT-549 breast): > 100 µM
- TGI (COLO 205 colon): > 100 µM
- TGI (SK-MEL-5 melanoma): > 100 µM
- TGI (ACHN renal): > 100 µM
- TGI (SF-295 CNS): > 100 µM
- TGI (EKVX NSCLC): > 100 µM
- TGI (MCF7 breast): > 100 µM
- TGI (CCRF-CEM leukemia): > 100 µM
- TGI (KM12 colon): > 100 µM

SMILES: CCOC(=O)/C(C(C)=O)=C(\OC(C)=O)c1ccncc1C(=O)O
- TGI (BT-549 breast): > 100 µM
- TGI (COLO 205 colon): > 100 µM
- TGI (ACHN renal): > 100 µM
- TGI (SF-295 CNS): > 100 µM
- TGI (EKVX NSCLC): > 100 µM
- TGI (SR leukemia): > 100 µM
- TGI (MCF7 breast): > 100 µM
- TGI (CCRF-CEM leukemia): > 100 µM
- TGI (KM12 colon): > 100 µM

SMILES: COC(=O)c1ccccc1CC1Cc2cccc(C)c2C1=O (stereo not drawn)
- TGI (BT-549 breast): > 100 µM
- TGI (COLO 205 colon): 39.3 µM
- TGI (SK-MEL-5 melanoma): 37.5 µM
- TGI (ACHN renal): > 100 µM
- TGI (SF-295 CNS): > 100 µM
- TGI (EKVX NSCLC): 41.9 µM
- TGI (MCF7 breast): 56.1 µM
- TGI (CCRF-CEM leukemia): > 100 µM
- TGI (KM12 colon): 66.6 µM

SMILES: O=C(CNc1ccc(Cl)cc1Cl)Nn1c(-c2ccccc2)nc2ccccc2c1=O
- TGI (BT-549 breast): 34.5 µM
- TGI (COLO 205 colon): 36.1 µM
- TGI (SK-MEL-5 melanoma): 18.5 µM
- TGI (ACHN renal): 37.3 µM
- TGI (SF-295 CNS): 30.1 µM
- TGI (EKVX NSCLC): 35.5 µM
- TGI (SR leukemia): > 100 µM
- TGI (MCF7 breast): 27.4 µM
- TGI (CCRF-CEM leukemia): 16.3 µM

SMILES: O=C1C(=Nc2ccc(Nc3ccccc3)cc2)Oc2ccccc21
- TGI (COLO 205 colon): 3.01 µM
- TGI (SK-MEL-5 melanoma): 16.1 µM
- TGI (ACHN renal): 9.93 µM
- TGI (SF-295 CNS): 12.1 µM
- TGI (EKVX NSCLC): 27.7 µM
- TGI (SR leukemia): 4.71 µM
- TGI (MCF7 breast): 5.74 µM
- TGI (CCRF-CEM leukemia): 4.92 µM
- TGI (KM12 colon): 4.03 µM

SMILES: COc1cc(C2c3cc4c(cc3[C@@H](Nc3ccccc3)C3COC(=O)[C@H]23)OCO4)cc(OC)c1O (stereo partly drawn)
- TGI (COLO 205 colon): 5.66 µM
- TGI (SK-MEL-5 melanoma): 2.66 µM
- TGI (SF-295 CNS): 3.79 µM
- TGI (EKVX NSCLC): 8.47 µM
- TGI (MCF7 breast): > 41.2 µM
- TGI (CCRF-CEM leukemia): 0.476 µM
- TGI (KM12 colon): 4.69 µM

SMILES: O=C1c2cccc3cccc(c23)C(=O)N1CCCNCCCCNCCCNCCCN1C(=O)c2cccc3cccc(c23)C1=O
- TGI (BT-549 breast): 3.3 µM
- TGI (SK-MEL-5 melanoma): 8.35 µM
- TGI (ACHN renal): 7.43 µM
- TGI (SF-295 CNS): 22.7 µM
- TGI (EKVX NSCLC): 5.67 µM
- TGI (MCF7 breast): 0.599 µM
- TGI (CCRF-CEM leukemia): > 100 µM
- TGI (KM12 colon): 1.83 µM

SMILES: C=C(C)CNCCN
- TGI (BT-549 breast): > 100 µM
- TGI (SK-MEL-5 melanoma): > 100 µM
- TGI (ACHN renal): > 100 µM
- TGI (SF-295 CNS): > 100 µM
- TGI (EKVX NSCLC): > 100 µM
- TGI (SR leukemia): > 100 µM
- TGI (CCRF-CEM leukemia): > 100 µM
- TGI (KM12 colon): > 100 µM

SMILES: CSc1nc2c(c(N(C)C)n1)C(O)n1c(nc3ccccc31)S2 (stereo not drawn)
- TGI (BT-549 breast): > 100 µM
- TGI (COLO 205 colon): > 100 µM
- TGI (SK-MEL-5 melanoma): > 100 µM
- TGI (ACHN renal): > 100 µM
- TGI (SF-295 CNS): > 100 µM
- TGI (EKVX NSCLC): > 100 µM
- TGI (MCF7 breast): > 100 µM
- TGI (CCRF-CEM leukemia): > 100 µM
- TGI (KM12 colon): > 100 µM

SMILES: Nc1ncc2c(n1)-c1ccccc1OC2N1CCCC1 (stereo not drawn)
- TGI (COLO 205 colon): > 100 µM
- TGI (SK-MEL-5 melanoma): > 100 µM
- TGI (ACHN renal): > 100 µM
- TGI (SF-295 CNS): > 100 µM
- TGI (EKVX NSCLC): > 100 µM
- TGI (SR leukemia): > 100 µM
- TGI (MCF7 breast): > 100 µM
- TGI (CCRF-CEM leukemia): > 100 µM
- TGI (KM12 colon): > 100 µM
